This test deals with Prostaglandin G/H synthase 1 (Homo sapiens, UniProt P23219).

As a reminder, the Ki is the dissociation constant of the complex between target and ligand, obtained from inhibition or displacement. The low end stands for higher affinity, the high end for lower affinity.

Sequence of Prostaglandin G/H synthase 1 (P23219 whole entry): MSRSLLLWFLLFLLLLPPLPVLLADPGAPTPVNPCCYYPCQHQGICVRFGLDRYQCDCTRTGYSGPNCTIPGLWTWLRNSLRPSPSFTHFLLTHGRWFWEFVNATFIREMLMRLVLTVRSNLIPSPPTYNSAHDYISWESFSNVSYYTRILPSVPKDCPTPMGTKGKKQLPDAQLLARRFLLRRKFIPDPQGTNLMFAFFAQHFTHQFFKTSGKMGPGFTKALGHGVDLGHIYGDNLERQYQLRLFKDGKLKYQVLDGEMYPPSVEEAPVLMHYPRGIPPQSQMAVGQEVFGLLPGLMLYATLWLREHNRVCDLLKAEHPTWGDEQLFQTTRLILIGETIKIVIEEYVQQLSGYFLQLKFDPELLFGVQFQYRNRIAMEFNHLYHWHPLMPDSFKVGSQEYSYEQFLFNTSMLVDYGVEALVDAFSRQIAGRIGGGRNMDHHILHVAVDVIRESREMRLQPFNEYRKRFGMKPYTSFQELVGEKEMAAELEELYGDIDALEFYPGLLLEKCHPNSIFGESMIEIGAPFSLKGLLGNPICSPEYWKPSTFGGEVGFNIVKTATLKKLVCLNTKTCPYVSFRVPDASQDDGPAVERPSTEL

As to `Cc1ccc(-c2ncc(Cl)cc2-c2ccc(S(C)(=O)=O)cc2)cn1`, the Ki is over 10 µM.

For the origin of these results see BindingDB's records for doi:10.2165/00003495-200262180-00006 (Adis International, 2002).
